Experiments:
[1] = target: T1, Sodium-dependent dopamine transporter (Rattus norvegicus, UniProt P23977); assay: Displacement of [3H]mazindol from cocaine binding site on Dopamine transporter (DAT)
[2] = target: T1, Sodium-dependent dopamine transporter; assay: Inhibition of [3H]dopamine uptake at striatal nerve endings by dopamine transporter
[3] = target: Sodium-dependent serotonin transporter (Rattus norvegicus, UniProt P31652); assay: Inhibition of [3H]5-HT uptake at striatal nerve endings by serotonin transporter
[4] = Selectivity of uptake of 5-HT to DA; format: functional

Sequence of Sodium-dependent serotonin transporter (P31652 whole entry): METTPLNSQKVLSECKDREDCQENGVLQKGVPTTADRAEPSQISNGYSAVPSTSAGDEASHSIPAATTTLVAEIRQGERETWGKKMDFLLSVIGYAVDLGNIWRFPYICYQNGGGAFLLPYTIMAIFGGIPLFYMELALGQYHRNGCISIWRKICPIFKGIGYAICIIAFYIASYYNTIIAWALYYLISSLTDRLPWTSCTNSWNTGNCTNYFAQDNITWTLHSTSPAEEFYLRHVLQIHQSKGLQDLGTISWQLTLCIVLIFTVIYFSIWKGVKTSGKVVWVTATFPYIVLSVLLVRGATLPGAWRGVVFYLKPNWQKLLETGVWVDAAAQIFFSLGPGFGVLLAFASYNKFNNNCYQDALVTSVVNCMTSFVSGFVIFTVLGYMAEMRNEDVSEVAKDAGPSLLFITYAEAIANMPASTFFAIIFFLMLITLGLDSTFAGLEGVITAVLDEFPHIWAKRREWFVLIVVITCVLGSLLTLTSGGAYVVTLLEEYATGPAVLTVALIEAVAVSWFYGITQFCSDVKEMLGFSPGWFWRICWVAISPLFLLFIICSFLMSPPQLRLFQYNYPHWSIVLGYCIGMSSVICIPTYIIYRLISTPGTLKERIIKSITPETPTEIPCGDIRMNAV
T1 sequence (P23977 whole entry): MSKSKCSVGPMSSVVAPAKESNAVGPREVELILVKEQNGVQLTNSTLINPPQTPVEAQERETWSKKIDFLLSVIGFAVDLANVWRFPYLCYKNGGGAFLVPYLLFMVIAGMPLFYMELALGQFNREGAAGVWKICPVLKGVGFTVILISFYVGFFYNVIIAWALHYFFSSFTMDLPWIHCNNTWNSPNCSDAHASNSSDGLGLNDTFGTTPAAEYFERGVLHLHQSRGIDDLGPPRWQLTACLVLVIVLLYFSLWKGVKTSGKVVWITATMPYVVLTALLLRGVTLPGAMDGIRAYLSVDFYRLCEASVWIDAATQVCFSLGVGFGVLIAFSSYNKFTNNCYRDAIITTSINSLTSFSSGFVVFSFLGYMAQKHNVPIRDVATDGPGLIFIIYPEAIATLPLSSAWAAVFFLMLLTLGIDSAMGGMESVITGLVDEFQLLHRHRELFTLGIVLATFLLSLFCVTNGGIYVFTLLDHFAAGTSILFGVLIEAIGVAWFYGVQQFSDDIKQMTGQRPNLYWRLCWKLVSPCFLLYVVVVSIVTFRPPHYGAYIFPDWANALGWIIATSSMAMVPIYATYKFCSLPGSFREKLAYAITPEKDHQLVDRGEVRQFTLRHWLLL

Row | Structure (SMILES) | Ki [1] [nM] | Ki [2] [nM] | Ki [3] [nM] | Selectivity [4]
1 | Fc1ccc(C2C3CC[C@H](C[C@H]2c2ccc(F)cc2)N3CCC(c2ccccc2)c2ccccc2)cc1 (some centres undefined) | > 7000 | > 10000 | > 20000 | –
2 | Fc1ccc(C2C3CC[C@H](C[C@H]2c2ccc(F)cc2)N3CCc2ccccc2)cc1 (some centres undefined) | 10 | 26 | > 1.3 | > 50
3 | Fc1ccc(OCCN2C3CC[C@@H]2C[C@@H](c2ccc(F)cc2)C3c2ccc(F)cc2)cc1 (some centres undefined) | 22 | 27 | 928 | 34
4 | CN1C2CC[C@@H]1C[C@@H](c1ccc(F)cc1)C2c1ccc(F)cc1 (some centres undefined) | 31 | 14 | 460 | 33
5 | Cc1ccc([C@@H]2C[C@H]3CCC(C2c2ccccc2)N3C)cc1 (some centres undefined) | 6 | 4.6 | 120 | 26
6 | Fc1ccc(C2C3CC[C@H](C[C@H]2c2ccc(F)cc2)N3Cc2ccccc2)cc1 (some centres undefined) | 260 | 170 | 490 | 2.9
7 | Fc1ccc(C2C3CC[C@H](C[C@H]2c2ccc(F)cc2)N3CCCc2ccccc2)cc1 (some centres undefined) | 16 | 43 | 608 | 14
8 | Fc1ccc(C2C3CC[C@H](C[C@H]2c2ccc(F)cc2)N3CCCCc2ccccc2)cc1 (some centres undefined) | 86.4 | 210 | 110 | 0.52
9 | Fc1ccc(C2C3CCC(C[C@H]2c2ccc(F)cc2)N3)cc1 (some centres undefined) | 49 | 17 | 41 | 2.4
10 | Cc1ccc([C@@H]2C[C@H]3CCC(C2c2ccccc2)N3CCc2ccccc2)cc1 (some centres undefined) | 0.95 | 1.6 | 180 | 113
